The numbers were not newly measured in patent US6464987B1, “Pharmaceutical compositions capable of being gelled” (UCB, S.A., priority 1998, dated 2002), which cites them from elsewhere.

Like-named read-outs stand apart in the source and are kept apart here.

For series [1] the following is noted: mouse, in vivo.
A further series has as its system humans. The conditions noted are these: PLA-GA implants or PLA-GA microparticles.

`NC(=O)[C@@H]1CCCN1C(=O)[C@H](Cc1cnc[nH]1)NC(=O)[C@@H]1CCC(=O)N1` [TRH, thyrotropin releasing hormone]: the bioavailability in series [1] (im) was 31.4%; in series [1] (sc) it was 67.5%.

Regarding `CC(C)C[C@H](NC(=O)[C@@H](COC(C)(C)C)NC(=O)[C@H](Cc1ccc(O)cc1)NC(=O)[C@H](CO)NC(=O)[C@H](Cc1c[nH]c2ccccc12)NC(=O)[C@H](Cc1cnc[nH]1)NC(=O)[C@@H]1CCC(=O)N1)C(=O)N[C@@H](CCCNC(=N)N)C(=O)N1CCC[C@H]1C(=O)NNC(N)=O` [gosereline], the “level of testosterone in the blood” value in the series with humans was “very significant and lasting decrease”.
